Structures can show the parent of a compound that is named as a salt. Blank lines part the entries; values can stand above or below the molecule they belong to.
Experiments:
[1] = system: MCF7; experiment: Anticancer activity against human MCF7 cells assessed as inhibition of cell growth; assay type: functional, cell-based
[2] = system: MDA-MB-468; experiment: Anticancer activity against human MDA-MB-468 cells assessed as inhibition of cell growth incubated for 48 hrs by SRB assay; assay type: functional; conditions: for CC50: read-out: LC50 (the source's name)
[3] = system: MCF7; experiment: Anticancer activity against human MCF7 cells assessed as inhibition of cell growth incubated for 48 hrs by SRB assay; assay type: functional; conditions: for CC50: read-out: LC50 (the source's name)
[4] = system: MDA-MB-435; experiment: Anticancer activity against human MDA-MB-435 cells assessed as inhibition of cell growth incubated for 48 hrs by SRB assay; assay type: functional
[5] = system: NCI-H226; experiment: Anticancer activity against human NCI-H226 cells assessed as inhibition of cell growth incubated for 48 hrs by SRB assay; assay type: functional
[6] = system: MCF7; experiment: Anticancer activity against human MCF7 cells assessed as cell growth at 0.1 uM incubated for 48 hrs by SRB assay; assay type: functional; conditions: read-out: Activity
[7] = system: MCF7; experiment: Anticancer activity against human MCF7 cells assessed as cell growth at 1 uM incubated for 48 hrs by SRB assay; assay type: functional; conditions: read-out: Activity
[8] = system: MCF7; experiment: Anticancer activity against human MCF7 cells assessed as cell growth at 10 uM incubated for 48 hrs by SRB assay; assay type: functional; conditions: read-out: Activity
[9] = system: MCF7; experiment: Anticancer activity against human MCF7 cells assessed as cell growth at 100 uM incubated for 48 hrs by SRB assay; assay type: functional; conditions: read-out: Activity
[10] = system: NCI-H226; experiment: Anticancer activity against human NCI-H226 cells assessed as cell growth at 0.1 uM incubated for 48 hrs by SRB assay; assay type: functional; conditions: read-out: Activity
[11] = system: NCI-H226; experiment: Anticancer activity against human NCI-H226 cells assessed as cell growth at 1 uM incubated for 48 hrs by SRB assay; assay type: functional; conditions: read-out: Activity
[12] = system: NCI-H226; experiment: Anticancer activity against human NCI-H226 cells assessed as cell growth at 10 uM incubated for 48 hrs by SRB assay; assay type: functional; conditions: read-out: Activity
[13] = system: NCI-H226; experiment: Anticancer activity against human NCI-H226 cells assessed as cell growth at 100 uM incubated for 48 hrs by SRB assay; assay type: functional; conditions: read-out: Activity
[14] = system: MDA-MB-435; experiment: Anticancer activity against human MDA-MB-435 cells assessed as cell growth at 0.1 uM incubated for 48 hrs by SRB assay; assay type: functional; conditions: read-out: Activity
[15] = system: MDA-MB-435; experiment: Anticancer activity against human MDA-MB-435 cells assessed as cell growth at 1 uM incubated for 48 hrs by SRB assay; assay type: functional; conditions: read-out: Activity
[16] = system: MDA-MB-435; experiment: Anticancer activity against human MDA-MB-435 cells assessed as cell growth at 10 uM incubated for 48 hrs by SRB assay; assay type: functional; conditions: read-out: Activity
[17] = system: MDA-MB-435; experiment: Anticancer activity against human MDA-MB-435 cells assessed as cell growth at 100 uM incubated for 48 hrs by SRB assay; assay type: functional; conditions: read-out: Activity
[18] = molecular target: T1, CYP1A1 (Homo sapiens, UniProt P04798); experiment: Inhibition of recombinant CYP1A1 (unknown origin) assessed as residual enzyme activity using 7-ethoxyresorufin as substrate at 0.01 uM incubated for 15 mins by resorufin dye based spectrofluorimetry (reference value: 100%); assay type: ADME; conditions: recombinant CYP1A1, probe 7-ethoxyresorufin, read-out: Activity
T1 sequence (P04798 whole entry): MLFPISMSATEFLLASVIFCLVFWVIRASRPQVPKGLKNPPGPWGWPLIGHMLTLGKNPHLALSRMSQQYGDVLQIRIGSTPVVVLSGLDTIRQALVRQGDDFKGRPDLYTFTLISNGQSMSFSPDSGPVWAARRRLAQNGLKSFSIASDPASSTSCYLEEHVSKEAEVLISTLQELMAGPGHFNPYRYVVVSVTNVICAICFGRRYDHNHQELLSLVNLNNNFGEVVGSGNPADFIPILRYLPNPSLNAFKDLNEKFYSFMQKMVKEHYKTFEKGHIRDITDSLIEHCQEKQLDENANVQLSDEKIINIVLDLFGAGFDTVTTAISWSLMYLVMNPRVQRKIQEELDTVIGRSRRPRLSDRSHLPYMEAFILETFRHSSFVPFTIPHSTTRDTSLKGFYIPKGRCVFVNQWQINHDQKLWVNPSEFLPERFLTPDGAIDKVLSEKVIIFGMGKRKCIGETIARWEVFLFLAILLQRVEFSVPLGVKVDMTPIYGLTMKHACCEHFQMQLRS

[19] = molecular target: T1, CYP1A1; experiment: Inhibition of recombinant CYP1A1 (unknown origin) assessed as residual enzyme activity using 7-ethoxyresorufin as substrate at 0.1 uM incubated for 15 mins by resorufin dye based spectrofluorimetry (reference value: 100%); assay type: ADME; conditions: recombinant CYP1A1, probe 7-ethoxyresorufin, read-out: Activity
[20] = molecular target: T1, CYP1A1; experiment: Inhibition of recombinant CYP1A1 (unknown origin) assessed as residual enzyme activity using 7-ethoxyresorufin as substrate at 1 uM incubated for 15 mins by resorufin dye based spectrofluorimetry (reference value: 100%); assay type: ADME; conditions: recombinant CYP1A1, probe 7-ethoxyresorufin, read-out: Activity
[21] = molecular target: T1, CYP1A1; experiment: Inhibition of recombinant CYP1A1 (unknown origin) assessed as residual enzyme activity using 7-ethoxyresorufin as substrate at 10 uM incubated for 15 mins by resorufin dye based spectrofluorimetry (reference value: 100%); assay type: ADME; conditions: recombinant CYP1A1, probe 7-ethoxyresorufin, read-out: Activity
[22] = molecular target: T1, CYP1A1; experiment: Inhibition of recombinant CYP1A1 (unknown origin) assessed as residual enzyme activity using 7-ethoxyresorufin as substrate at 50 uM incubated for 15 mins by resorufin dye based spectrofluorimetry (reference value: 100%); assay type: ADME; conditions: recombinant CYP1A1, probe 7-ethoxyresorufin, read-out: Activity
[23] = molecular target: T1, CYP1A1; experiment: Inhibition of recombinant CYP1A1 (unknown origin) assessed as residual enzyme activity using 7-ethoxyresorufin as substrate at 100 uM incubated for 15 mins by resorufin dye based spectrofluorimetry (reference value: 100%); assay type: ADME; conditions: recombinant CYP1A1, probe 7-ethoxyresorufin, read-out: Activity
[24] = molecular target: T2, Cytochrome P450 1A1 (Homo sapiens, UniProt P04798); experiment: Inhibition of recombinant CYP1A1 (unknown origin) assessed as decrease in EROD activity using 7-ethoxyresorufin as substrate upto 100 uM incubated for 15 mins by resorufin dye based spectrofluorimetry; assay type: ADME; conditions: recombinant enzyme, 0.25 h
T2 sequence (P04798 whole entry): T1 sequence (P04798 whole entry)

[25] = system: MDA-MB-468; experiment: Anticancer activity against human MDA-MB-468 cells assessed as cell growth at 0.1 uM incubated for 48 hrs by SRB assay; assay type: functional; conditions: read-out: Activity
[26] = system: MDA-MB-468; experiment: Anticancer activity against human MDA-MB-468 cells assessed as cell growth at 1 uM incubated for 48 hrs by SRB assay; assay type: functional; conditions: read-out: Activity
[27] = system: MDA-MB-468; experiment: Anticancer activity against human MDA-MB-468 cells assessed as cell growth at 10 uM incubated for 48 hrs by SRB assay; assay type: functional; conditions: read-out: Activity
[28] = system: MDA-MB-468; experiment: Anticancer activity against human MDA-MB-468 cells assessed as cell growth at 100 uM incubated for 48 hrs by SRB assay; assay type: functional; conditions: read-out: Activity

Compound: CCOc1ccc(-c2nc3cc(F)ccc3s2)cc1OCC
IC50 [1]: 0.0007 µM

Compound: COc1ccc(-c2nc3cc(F)ccc3s2)cc1
IC50 [1]: 0.49 µM

Compound: Fc1ccc2sc(-c3ccc4c(c3)OCO4)nc2c1
IC50 [1]: 20.7 µM

Compound: Oc1ccc(-c2nc3ccc(Br)cc3s2)cc1
IC50 [1]: 4.16 µM

Compound: COc1ccc2nc(-c3ccc(O)cc3)sc2c1
IC50 [1]: 45.8 µM

Compound: Oc1ccc(-c2nc3ccc(Cl)cc3s2)cc1
IC50 [1]: 26.5 µM

Compound: Oc1ccc(-c2nc3cc(C(F)(F)F)ccc3s2)cc1
IC50 [1]: 13.8 µM

Compound: Oc1cccc(-c2nc3cc(F)ccc3s2)c1
IC50 [1]: 0.57 µM

Compound: Oc1ccc(-c2nc3cc(F)ccc3s2)cc1
IC50 [1]: 0.4 µM

Compound: COc1ccc(-c2cc(=O)c3ccc(F)cc3o2)cc1OC
IC50 [1]: 27.9 µM

Compound: Fc1ccc2oc(-c3ccc4c(c3)OCO4)nc2c1
IC50 [1]: 61.4 µM

Compound: Fc1ccc2nc(-c3ccc4c(c3)OCO4)oc2c1
IC50 [1]: 19.2 µM

Compound: COc1ccc(-c2cc(=O)c3cc(F)ccc3o2)cc1OC
IC50 [1]: 83.4 µM

Compound: CS(=O)(=O)c1ccc2nc(-c3ccc(O)cc3)sc2c1
IC50 [1]: 62.3 µM

Compound: COc1ccc(-c2nc3cc(F)ccc3o2)cc1
IC50 [1]: 22.7 µM

Compound: Cc1ccc(-c2nc3cc(F)ccc3s2)cc1O
IC50 [1]: 0.5 µM

Compound: COc1ccccc1-c1nc2ccc(F)cc2s1
IC50 [1]: 0.82 µM

Compound: NC(=O)c1c(NC(=O)Cc2ccc(F)cc2)sc2c1CCCC2
GI50 [2]: 91 µM
TGI [2]: > 100 µM
CC50 [2]: > 100 µM
GI50 [3]: 68.1 µM
TGI [3]: > 100 µM
CC50 [3]: > 100 µM
GI50 [4]: > 100 µM
LC50 [4]: > 100 µM
TGI [4]: > 100 µM
GI50 [5]: 65.7 µM
LC50 (concentration killing 50% of cells) [5]: > 100 µM
TGI [5]: > 100 µM
growth at 0.1 µM [6]: 89.7%
growth at 1 µM [7]: 84.8%
growth at 10 µM [8]: 79.3%
growth at 100 µM [9]: 32.2%
growth at 0.1 µM [10]: 89.8%
growth at 1 µM [11]: 78.7%
growth at 10 µM [12]: 71.9%
growth at 100 µM [13]: 33%
growth at 0.1 µM [14]: 99.7%
growth at 1 µM [15]: 99.3%
growth at 10 µM [16]: 98.9%
growth at 100 µM [17]: 84.9%
activity at 0.25 h, 0.01 µM [18]: 99.8%
activity at 0.25 h, 0.1 µM [19]: 102%
activity at 0.25 h, 1 µM [20]: 100%
activity at 0.25 h, 10 µM [21]: 102%
activity at 0.25 h, 50 µM [22]: 98.1%
activity at 0.25 h, 100 µM [23]: 102%
inhibition (INH) [24]: Not Active

Compound: Cc1c(F)c(N)c2c(=O)cc(-c3ccc(N)c(F)c3)oc2c1F [AMINOFLAVONE]
IC50 [1]: 0.035 µM

Compound: COc1cccc2c1C(=O)c1c(O)c3c(c(O)c1C2=O)C[C@@](O)(C(=O)CO)C[C@@H]3O[C@H]1C[C@H](N)[C@H](O)[C@H](C)O1 [DOXORUBICIN HYDROCHLORIDE]
GI50 [2]: 10.5 µM
TGI [2]: 50.4 µM
CC50 [2]: 90.2 µM
GI50 [3]: < 0.1 µM
TGI [3]: 90.4 µM
CC50 [3]: > 100 µM
GI50 [4]: < 0.1 µM
TGI [4]: 43.4 µM
GI50 [5]: < 0.1 µM
TGI [5]: 43.2 µM
growth at 0.1 µM [25]: 83%
growth at 1 µM [26]: 64.5%
growth at 10 µM [27]: 22%
growth at 100 µM [28]: -60.9%
growth at 0.1 µM [6]: 28.5%
growth at 1 µM [7]: 17.2%
growth at 10 µM [8]: 10.5%
growth at 100 µM [9]: -1.6%
growth at 0.1 µM [10]: 57.4%
growth at 1 µM [11]: 12.7%
growth at 10 µM [12]: 8.1%
growth at 100 µM [13]: -38.3%
growth at 0.1 µM [14]: 50.8%
growth at 1 µM [15]: 42.8%
growth at 10 µM [16]: -26.6%
growth at 100 µM [17]: -30.9%

Now from value to molecule:

IC50 [1]: 16 µM
Compound: COc1cc(-c2nc3cc(F)ccc3o2)cc(OC)c1OC

IC50 [1]: 3.72 µM
Compound: COc1cc(OC)cc(-c2nc3ccc(F)cc3o2)c1

IC50 [1]: 58.1 µM
Compound: COc1cccc(OC)c1-c1nc2cc(F)ccc2o1

IC50 [1]: 35.1 µM
Compound: COc1cccc(-c2nc3ccc(F)cc3o2)c1

IC50 [1]: 41 µM
Compound: COc1ccc(-c2nc3ccc(F)cc3o2)cc1

IC50 [1]: 1.09 µM
Compound: COc1cc(-c2nc3ccc(F)cc3o2)cc(OC)c1OC

IC50 [1]: 0.36 µM
Compound: COc1ccccc1-c1nc2cc(F)ccc2o1

IC50 [1]: 39.5 µM
Compound: COc1cccc(-c2nc3cc(F)ccc3o2)c1

IC50 [1]: 69.9 µM
Compound: COc1ccc(-c2nc3ccc(F)cc3o2)c(OC)c1

IC50 [1]: 0.83 µM
Compound: COc1ccc(-c2nc3cc(F)ccc3o2)cc1OC

IC50 [1]: 90.7 µM
Compound: COc1cccc(OC)c1-c1nc2ccc(F)cc2o1

IC50 [1]: 45.4 µM
Compound: COc1cc(OC)cc(-c2nc3cc(F)ccc3o2)c1
